Reference: ChEMBL document CHEMBL1135600, “Novel tricyclic-alpha-alkyloxyphenylpropionic acids: dual PPARalpha/gamma agonists with hypolipidemic and antidiabetic activity” (J Med Chem, 2002)
Where “and” joins values, the source holds several entries; their conditions need not be identical. Equal entries are not always repeated. One block for each molecule: values may come before it.

What was measured:
[1] = molecular target: T1, Peroxisome proliferator-activated receptor gamma (Homo sapiens, UniProt P37231)
T1 sequence (P37231 whole entry): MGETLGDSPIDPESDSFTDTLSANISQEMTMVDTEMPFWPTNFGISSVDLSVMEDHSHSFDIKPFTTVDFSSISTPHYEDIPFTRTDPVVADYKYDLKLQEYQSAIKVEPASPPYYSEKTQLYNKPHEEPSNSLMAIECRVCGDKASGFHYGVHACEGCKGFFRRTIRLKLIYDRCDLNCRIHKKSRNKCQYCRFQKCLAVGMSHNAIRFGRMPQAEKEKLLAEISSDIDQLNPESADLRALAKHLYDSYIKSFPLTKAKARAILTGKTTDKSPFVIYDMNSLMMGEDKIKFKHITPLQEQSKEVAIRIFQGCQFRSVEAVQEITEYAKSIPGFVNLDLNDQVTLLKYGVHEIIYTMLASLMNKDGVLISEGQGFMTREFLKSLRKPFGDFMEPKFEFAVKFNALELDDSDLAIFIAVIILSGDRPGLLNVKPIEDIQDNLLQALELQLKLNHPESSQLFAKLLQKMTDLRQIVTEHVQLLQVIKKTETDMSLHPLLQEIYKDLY
Description: In vitro transactivation using receptor transactivation assay against hPPAR gamma

[2] = molecular target: T2, Peroxisome proliferator-activated receptor alpha (Homo sapiens, UniProt Q07869); experiment: In vitro transactivation using receptor transactivation assay against hPPAR alpha; assay type: functional
T2 sequence (Q07869 whole entry): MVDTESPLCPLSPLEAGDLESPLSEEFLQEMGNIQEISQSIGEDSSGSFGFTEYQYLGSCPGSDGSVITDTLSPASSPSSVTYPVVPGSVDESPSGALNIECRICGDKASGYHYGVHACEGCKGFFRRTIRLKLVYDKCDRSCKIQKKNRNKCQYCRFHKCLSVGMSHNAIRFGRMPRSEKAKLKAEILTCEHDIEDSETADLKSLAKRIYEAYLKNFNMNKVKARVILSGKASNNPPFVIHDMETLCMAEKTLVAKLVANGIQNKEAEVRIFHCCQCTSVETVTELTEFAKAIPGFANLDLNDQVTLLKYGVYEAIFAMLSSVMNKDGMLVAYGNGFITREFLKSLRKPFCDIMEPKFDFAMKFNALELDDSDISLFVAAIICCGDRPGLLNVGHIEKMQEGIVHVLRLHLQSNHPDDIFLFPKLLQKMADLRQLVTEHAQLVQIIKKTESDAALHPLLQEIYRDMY

Rattus norvegicus [3] = species: Rattus norvegicus; experiment: Effective dose which produces the desired total cholesterol levels imale Sprgue-Dawley rats.; assay type: functional
Rattus norvegicus [4] = species: Rattus norvegicus; experiment: Maximum achieved Nonfasted triglycerides reduction relative to vehicle treated control group; assay type: functional
Rattus norvegicus [5] = species: Rattus norvegicus; experiment: Maximum achieved Total cholesterol reduction relative to vehicle treated control group; assay type: functional
Rattus norvegicus [6] = species: Rattus norvegicus; experiment: Effective dose which produces the desired nonfasting triglyceride levels in high cholesterol fed male Sprgue-Dawley rats.; assay type: functional
[7] = molecular target: T3, Peroxisome proliferator-activated receptor delta (Homo sapiens, UniProt Q03181); experiment: In vitro transcriptional activation of hPPAR delta; assay type: functional
T3 sequence (Q03181 whole entry): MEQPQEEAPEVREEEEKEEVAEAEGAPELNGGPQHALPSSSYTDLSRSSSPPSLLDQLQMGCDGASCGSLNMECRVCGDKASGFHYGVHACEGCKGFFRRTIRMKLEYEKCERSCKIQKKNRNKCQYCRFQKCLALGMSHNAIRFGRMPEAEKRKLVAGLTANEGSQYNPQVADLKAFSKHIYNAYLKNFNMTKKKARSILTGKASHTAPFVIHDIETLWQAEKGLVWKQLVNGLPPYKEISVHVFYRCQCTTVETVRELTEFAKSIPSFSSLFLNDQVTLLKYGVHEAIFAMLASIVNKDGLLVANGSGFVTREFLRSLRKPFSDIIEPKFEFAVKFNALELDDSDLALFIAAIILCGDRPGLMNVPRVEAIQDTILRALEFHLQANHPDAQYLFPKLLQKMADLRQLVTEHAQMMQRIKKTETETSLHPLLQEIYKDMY

[8] = Oral bioavailability; assay type: ADME, organism-based; details: eutheria, in vivo
Mus musculus [9] = species: Mus musculus; experiment: Effective dose which produces the desired nonfasting insuline levels after 7 days in 50% of the treated male db/db mice.; assay type: functional; details: 168 h
[10] = Clearance after oral administration; assay type: ADME, organism-based; details: in vivo
Mus musculus [11] = species: Mus musculus; experiment: Effective dose which produces the desired nonfasting blood glucose levels after 7 days in 50% of the treated mice.; assay type: functional; details: 168 h
Mus musculus [12] = species: Mus musculus; experiment: Effective dose which produces the desired nonfasting triglyceride levels after 7 days in 50% of the treated male db/db mice.; assay type: functional; details: 168 h
Mus musculus [13] = species: Mus musculus; experiment: Maximum achieved insulin reduction relative to vehicle treated control group; assay type: functional
[14] = Maximum plasma concentration after oral administration at a dose 2.2 mg/kg; assay type: ADME, organism-based; parameters: dose 2.2 mg/kg, route oral
[15] = Area under blood glucose time curve after OGTT on the 9th day of treatment; assay type: ADME, tissue-based
Mus musculus [16] = species: Mus musculus; experiment: Maximum achieved triglycerides reduction relative to vehicle treated control group; assay type: functional
[17] = Oral half life was reported; assay type: ADME, organism-based; details: in vivo
[18] = Area under plasma concentration time curve after oral administration at a dose 2.2 mg/kg; assay type: ADME, organism-based; parameters: dose 2.2 mg/kg, route oral; details: plasma, read-out: AUC (converted)
Mus musculus [19] = species: Mus musculus; experiment: Maximum achieved blood glucose reduction relative to vehicle treated control group; assay type: functional
[20] = Oral bioavailability in rat; assay type: ADME, organism-based; details: in vivo
[21] = Clearance after oral administration in rat; assay type: ADME, organism-based; details: in vivo
[22] = Maximum plasma concentration after oral administration at a dose 2.2 mg/kg in rat; assay type: ADME, organism-based; parameters: dose 2.2 mg/kg, route oral
[23] = Area under plasma concentration time curve after oral administration at a dose 2.2 mg/kg in rat; assay type: ADME, organism-based; parameters: dose 2.2 mg/kg, route oral
[24] = Volume of distribution during steady state in rat; assay type: ADME, organism-based; details: in vivo, read-out: Vss
[25] = Oral half life was reported in rat; assay type: ADME, organism-based; details: in vivo

EC50 [1]: 330 nM
EC50 [2]: 2400 nM
SMILES: CCO[C@@H](Cc1ccc(OCCn2c3ccccc3c3cc(Br)ccc32)cc1)C(=O)O

EC50 [1]: 16700 nM
SMILES: CCOC(Cc1ccc(OCCC=C2c3ccccc3CCc3ccccc32)cc1)C(=O)O (stereo not drawn)

EC50 [7]: 2410 nM
EC50 [2]: 340 nM
SMILES: CCCCC[C@H](O)/C=C/[C@@H]1[C@H]2C/C(=C\CCCC(=O)O)C[C@H]2C[C@H]1O [CARBACYCLIN]

The remaining lines, values behind:

SMILES: CC(C)(Oc1ccc(CCNC(=O)c2ccc(Cl)cc2)cc1)C(=O)O [BEZAFIBRATE]
ED50 (Rattus norvegicus [3]): 16.7 mg/kg
Reduction (Rattus norvegicus [4]): 63%
Reduction (Rattus norvegicus [5]): 74%
EC50 [1]: 73500 nM
ED50 (Rattus norvegicus [6]): 16.5 mg/kg

SMILES: CCO[C@@H](Cc1ccc(OCCn2c3ccccc3c3ccccc32)cc1)C(=O)O
bioavailability [8]: > 100%
ED50 (Rattus norvegicus [3]): 0.34 mg/kg
Reduction (Rattus norvegicus [4]): 56%
Reduction (Rattus norvegicus [5]): 50%
ED50 (Mus musculus [9]): 0.34 mg/kg
EC50 [1]: 170 nM
ED50 (Rattus norvegicus [6]): 0.06 mg/kg
CL/F [10]: 0.75 mL/min/kg
ED50 (Mus musculus [11]): 0.27 mg/kg
ED50 (Mus musculus [12]): 0.52 mg/kg
Max reduction (Mus musculus [13]): 85%
Cmax [14]: 4430 ng/mL
AUC ED50 [15]: 0.4 mg/kg
Max reduction (Mus musculus [16]): 52%
Vd (in vivo): 0.73 L/kg
EC50 [2]: 360 nM
half-life [17]: 22.2 h
AUC [18]: 144000 ng·h/mL
Max reduction (Mus musculus [19]): 58% and 55%

SMILES: CCO[C@@H](Cc1ccc(OCCn2c3ccccc3c3ccncc32)cc1)C(=O)O
bioavailability [20]: 61%
CL/F [21]: 12.7 mL/min/kg
Cmax [22]: 527 ng/mL
ED50 (Mus musculus [9]): 7.74 mg/kg
AUC [23]: 1330 ng·h/mL
EC50 [1]: 11 nM
ED50 (Mus musculus [11]): 0.33 mg/kg
ED50 (Mus musculus [12]): 2.68 mg/kg
Max reduction (Mus musculus [13]): 77%
AUC ED50 [15]: 3.32 mg/kg
Max reduction (Mus musculus [16]): 50%
EC50 [2]: 140 nM
Vd [24]: 0.88 L/kg
half-life [25]: 2.7 h
